We go through four compounds from US20230226100A1, “CYCLODEXTRIN BASED ANTI-MICROBIAL THERAPY” (University of Southern California, priority 2020, published 2023).

Common to all, as to assay type: cell-based
One data set has as its system A549. The experiment in a line: Alamar Blue chemical dye penetration through barrier, A549. The protocol: (§1) Studies test efficacy barrier to prevent chemical dye penetration. We used a resurazine dye that can penetrate across cellular membranes where it is […] to form a purple color and is quantifiable using fluorescence or visible light. Chemical exposure used Alamar Blue which was incubated for 4 hours. The ability of the barrier formulation to prevent chemical penetration was measured at 570 nm and confirmed using fluorescence intensity (560/590 nm) readings. A concentration dependent response to HPBCD was observed over four hours of incubation. The chemical dye penetration was reduced with increasing percent beta cyclodextrin across all timepoints (FIG. 5).
The ability to block chemical exposure was also conducted in the other cyclodextrins namely hydroxypropyl gamma cyclodextrin (HPGCD), sulfonylbutyl ethyl beta cyclodextrins (SBEBCD), and randomly methylated methyl beta cyclodextrins (CRYSMEB) and incubating over 4 hours. The ability of the barrier formulations to prevent chemical penetration was measured at an absorbance of 570 nm and confirmed using fluorescence intensity (560/590 nm) readings. […] The addition of HEC improved the ability to prevent chemical penetration (Table 2). Although the data is unexpected, it allows for further probe into the effect of these cyclodextrin derivatives on viral particles which may be bigger and more hydrophobic.
(§2) To determine the ability of the candidate nanoscale barrier to prevent chemical penetration, epithelial cells (e.g., HEK293T, A549, Vero-E6 ACE2) were seeded at 1×10^4 cells per well and incubated in DMEM till confluence. Cyclodextrin-based formation candidates were tested at various concentrations from 0 to 20% was added at varying concentrations (% w/v) and incubated for 0.5 h prior to the addition of the Alamar Blue. Alamar Blue is able to penetrate the cell, where viable cells are able to reduce the resazurin-based solution to quantitatively measure level of penetration.
(Alamar Blue is a resazurin reagent that responds to reducing activity.)

The subject of a further data set is HEK293T. The experiment in a line: Alamar Blue chemical dye penetration through barrier, HEK293T. The protocol:
as §1, §2

A further data set deals with Vero-E6 ACE2. The experiment in a line: Alamar Blue chemical dye penetration through barrier, Vero-E6 ACE2. As for the experimental part: as §1, §2
Data set [1] relates to pLV[Exp]-Puro-CMV>EGFP lentivirus. The experiment in a line: EGFP lentivirus infection of HEK293T cells in presence of barrier. The protocol: To simulate viral infection, we used lentivirus that has green fluorescent protein (GFP) incorporated into its gene. Lentivirus are designed to be highly efficient to transfect epithelial cells such as HEK293T. The effect of HPBCD barrier to present viral infection was evaluated using a concentration escalation study, where HPBCD ranged from 0 to 25% (w/v). In this study, we used a pLV[Exp]-Puro-CMV>EGFP lentivirus to infect HEK293T.
Human muco-ciliary deposition and clearance of exogenous substances occurs in 30 minutes as determined through real time methodology (Thrall et al., Inhalation Toxicology, 2003. 15(6): p. 523-538). Subsequently the EGFP lentivirus was incubated in the presence and absence of the HPBCD barrier for reduced time periods (0.5 h and 2 h) to reflect applicability of a HPBCD nasal spray. After the incubation period, barriers were removed, and cells were washed with 1×PBS before replacement with complete cell culture medium. 24 hours post-incubation at 5% CO2 and 37 degrees C., fluorescence imaging was conducted using the Biotek Cytation 5 imaging device in which 4×GFP images were taken. […] After 30 minutes of incubation with the virus, there is 50% reduction of viral infectivity as measured by fluorescence signal using 5% HPBCD.
To test the ability to prevent viral Epithelial cells (e.g., HEK293T, A549, Vero-E6 ACE2) were used a models chemical and viral infections. Cells were seeded onto 96-well plates at a density of 10^4 cells per well and incubated in DMEM (phenol red free) with 10% FBS and 1% non-essential ammino acids (NEAA). Cells were allowed to attach and grown to confluence to allow for cell polarization prior to experimentation.
Cyclodextrin was added at varying concentrations (% w/v) and incubated for 0.5 h prior to the addition of the virus. Polybrene added at a final concentration of 5 ug/mL to promote viral uptake. Cells were then infected with pLV[Exp]-Puro-CMV>EGFP lentivirus and incubated at 37° C., 5% CO2 for 0.5, 2, or 24 h depending upon the experimental setup. After the incubation time, the beta cyclodextrin solution was removed and cells washed with 1×PBS twice prior to the addition of complete growth medium (DMEM). GFP lentivirus was imaged using the Cytation 5 (Biotek) and relative fluorescence quantified using the Synergy H1 microplate reader (Biotek).

The next data set concerns A549 cells. The experiment in a line: Safety of barriers: A549 cell morphology. The following applies: 5% concentrations; incubated 1 h; 10× magnification. The protocol:
During protection of mucocutaneous linings, barriers will be exposed repeatedly due to frequent dosing. A critical criterion for selecting the right cyclodextrin for a nanoformulation barrier usable in this application is the safety of the cyclodextrin type. A549 cells were seeded at 4×10^4 cells per well and grown to confluence. Cyclodextrin-based formation candidates were tested at 5% concentrations and incubated for 1 h prior to the addition. The barrier was then replaced with media for evaluation. Pictures were taken for at least five field views at 10× magnification.

[2] abbreviates: Table 2, confluent A549, 2.5% cyclodextrin (+ HEC: 0.188% HEC), 2 hr, negative values = increase in fluorescence intensity.
Where [3] appears, read: Table 2, confluent A549, 2.5% cyclodextrin (+ HEC: 0.188% HEC), 4 hr, negative values = increase in fluorescence intensity.
The mark [4] stands for this setting: Table 2, confluent A549, 5% cyclodextrin (+ HEC: 0.375% HEC), 2 hr, negative values = increase in fluorescence intensity.
The mark [5] stands for this setting: Table 2, confluent A549, 5% cyclodextrin (+ HEC: 0.375% HEC), 4 hr, negative values = increase in fluorescence intensity.
The mark [6] stands for this setting: Table 2, confluent A549, 10% cyclodextrin (+ HEC: 0.75% HEC), 2 hr, negative values = increase in fluorescence intensity.
Setting [7] is: Table 2, confluent A549, 10% cyclodextrin (+ HEC: 0.75% HEC), 4 hr, negative values = increase in fluorescence intensity.
[8] abbreviates: confluent A549, incubation over 4 hours.
Where [9] appears, read: 2.5% HPBCD (Combination: + 0.188% HEC), 2 hr.
Where [10] appears, read: 2.5% HPBCD (Combination: + 0.188% HEC), 4 hr.
The mark [11] stands for this setting: 5% HPBCD (Combination: + 0.375% HEC), 2 hr.
The mark [12] stands for this setting: 5% HPBCD (Combination: + 0.375% HEC), 4 hr.
[13] abbreviates: 10% HPBCD (Combination: + 0.75% HEC), 2 hr.
Where [14] appears, read: 10% HPBCD (Combination: + 0.75% HEC), 4 hr.

Consider “sulfobutyl ether-beta-cyclodextrin [SBEBCD]”, for which the “Percent Reduction Compared to No Barrier Treatment (Mean ± SD)” value in the data set on A549 (setting [2]) was 10.7 ± 2.57%; in the data set with A549 (setting [3]), −244.5 ± 3.0%; in the data set on A549 (setting [4]), 39.5 ± 1.2%; with A549 (setting [5]), −218.2 ± 13.2%; in the data set on A549 (setting [6]), 51.3 ± 2.4%; in the data set with A549 (setting [7]), −108.2 ± 19.5%. Moreover, the “chemical dye penetration (in words)” value in the data set with A549 (confluent A549, 2 h timepoint) is given as “dose-dependent reduction in chemical dye penetration”; in the data set with A549 (setting [8]), “enhanced chemical dye penetration”.
With “2-Hydroxypropyl-Gamma-cyclodextrin [HPGCD]”, the “Percent Reduction Compared to No Barrier Treatment (Mean ± SD)” value is recorded as −89.9 ± 3.8% with A549 (setting [2]); −244.5 ± 3.0% with A549 (setting [3]); −46.7 ± 2.4% in the data set on A549 (setting [4]); −210.66 ± 3.0% with A549 (setting [5]); −13.1 ± 1.4% with A549 (setting [6]); −97.0 ± 2.1% with A549 (setting [7]). Further, in the data set on A549 (setting [8]), the “chemical dye penetration (in words)” value is reported as “enhanced chemical dye penetration”.
In the case of `CC(O)COC[C@H]1O[C@@H]2O[C@H]3[C@H](O)[C@@H](O)[C@@H](O[C@H]4[C@H](O)[C@@H](O)[C@@H](O[C@H]5[C@H](O)[C@@H](O)[C@@H](O[C@H]6[C@H](O)[C@@H](O)[C@@H](O[C@H]7[C@H](O)[C@@H](O)[C@@H](O[C@H]8[C@H](O)[C@@H](O)[C@@H](O[C@H]1[C@H](O)[C@H]2O)O[C@@H]8COCC(C)O)O[C@@H]7COCC(C)O)O[C@@H]6COCC(C)O)O[C@@H]5COCC(C)O)O[C@@H]4COCC(C)O)O[C@@H]3COCC(C)O` (stereo partly drawn) [HPBCD, (2-Hydroxypropyl)-Beta-Cyclodextrin], the “Percent Reduction Compared to No Barrier Treatment (Mean ± SD)” value with A549 (A549, 2.5% HPBCD (Combination: + 0.188% HEC), 2 hr) was found to be 82.5 ± 1.4%; in the data set with A549 (A549, 2.5% HPBCD (Combination: + 0.188% HEC), 4 hr), 66.9 ± 1.9%; with A549 (A549, 5% HPBCD (Combination: + 0.375% HEC), 2 hr) it was 88.5 ± 0.7%; in the data set on A549 (A549, 5% HPBCD (Combination: + 0.375% HEC), 4 hr) it was 81.5 ± 0.7%; with A549 (A549, 10% HPBCD (Combination: + 0.75% HEC), 2 hr), 89.3 ± 0.6%; in the data set with A549 (A549, 10% HPBCD (Combination: + 0.75% HEC), 4 hr), 82.9 ± 0.9%. For the same compound, the “Percent Reduction Compared to No Barrier Treatment (Mean ± SD)” value is on record as 70.4 ± 1.7% in the data set with HEK293T (setting [9]); 71.7 ± 0.8% in the data set on HEK293T (setting [10]); 77.5 ± 0.6% with HEK293T (setting [11]); 80.4 ± 0.8% in the data set with HEK293T (setting [12]); 79.8 ± 0.6% with HEK293T (setting [13]); 84.3 ± 0.6% in the data set with HEK293T (setting [14]). In addition, the “Percent Reduction Compared to No Barrier Treatment (Mean ± SD)” value is reported as 62.8 ± 2.0% with Vero-E6 ACE2 (setting [9]); 67.1 ± 1.8% in the data set with Vero-E6 ACE2 (setting [10]); 70.2 ± 1.2% in the data set with Vero-E6 ACE2 (setting [11]); 76.9 ± 0.6% in the data set with Vero-E6 ACE2 (setting [12]); 73.5 ± 1.2% in the data set on Vero-E6 ACE2 (setting [13]); 82.5 ± 0.9% with Vero-E6 ACE2 (setting [14]). In the data set with HEK293T (FIG. 5, P<0.01), the “chemical dye (Alamar blue) penetration, relative fluorescence intensity vs no treatment” value is reported as “statistically significant reduction”. The “viral infectivity (GFP expressing lentiviruses)” value in data set [1] (5-20% HPBCD alone) was “able to reduce viral infectivity”. Also, the “signs of lentivirus infection” value in data set [1] (20% HPBCD alone as a barrier) is “No signs of lentivirus infection”. For the same compound, the “infectivity in HEK cells” value in data set [1] (0.5 h and 2 h incubation, p<0.05 and p<0.01 respectively) is given as “concentration dependent decrease in infectivity”. The “reduction of viral infectivity as measured by fluorescence signal” value in data set [1] (HEK293T, 5% HPBCD, 30 minutes of incubation with the virus) was determined as 50%. Moreover, in data set [1] (HEK293T, MOI of 5, 6 hours, 10% and 20% HPBCD, p≤0.01), the lentivirus infectivity result is “reduced lentivirus infectivity”. In addition, the “A549 cell morphology / cell death” value with A549 cells is listed as “No significant changes in cellular morphology or cell death”.
On to “crystalline methylated beta-cyclodextrin [CRYSMEB]”, for which the “chemical dye penetration (in words)” value in the data set on A549 (A549, across all timepoints) was “reduced in a dose-dependent manner”. Besides, the “Percent Reduction Compared to No Barrier Treatment (Mean ± SD)” value in the data set with A549 (setting [2]) came to 36.0 ± 2.3%; in the data set on A549 (setting [3]), 35.3 ± 1.9%; with A549 (setting [4]), 47.9 ± 0.8%; in the data set with A549 (setting [5]), 52.3 ± 2.6%; in the data set with A549 (setting [6]) it was 58.5 ± 1.4%; in the data set with A549 (setting [7]), 67.6 ± 2.3%. Also, in the data set on A549 cells, the “A549 cell morphology / cell death” value is “cellular death and cellular morphological changes”.
